Data as given in article PMC11292843 (ACS Omega, 2024).

Legend:
hPTP1B1–285 = target: T1, hPTP1B1–285 (Homo sapiens, UniProt P18031); experiment: PTP1B inhibition assay (pNPP, spectrocolorimetric), short form
T1 sequence (P18031 1-285): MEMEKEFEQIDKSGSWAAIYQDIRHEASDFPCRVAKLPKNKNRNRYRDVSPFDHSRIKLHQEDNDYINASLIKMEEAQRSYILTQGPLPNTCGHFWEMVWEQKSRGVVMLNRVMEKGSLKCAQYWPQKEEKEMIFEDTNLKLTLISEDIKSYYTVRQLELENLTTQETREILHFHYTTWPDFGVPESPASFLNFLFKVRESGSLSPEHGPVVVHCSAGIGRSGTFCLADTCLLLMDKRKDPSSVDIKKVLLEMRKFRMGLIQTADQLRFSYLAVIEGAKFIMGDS

hPTP1B1–400 [1] = target: T2, hPTP1B1–400 (Homo sapiens, UniProt P18031); experiment: PTP1B inhibition assay (pNPP, spectrocolorimetric), long form
T2 sequence (P18031 1-400): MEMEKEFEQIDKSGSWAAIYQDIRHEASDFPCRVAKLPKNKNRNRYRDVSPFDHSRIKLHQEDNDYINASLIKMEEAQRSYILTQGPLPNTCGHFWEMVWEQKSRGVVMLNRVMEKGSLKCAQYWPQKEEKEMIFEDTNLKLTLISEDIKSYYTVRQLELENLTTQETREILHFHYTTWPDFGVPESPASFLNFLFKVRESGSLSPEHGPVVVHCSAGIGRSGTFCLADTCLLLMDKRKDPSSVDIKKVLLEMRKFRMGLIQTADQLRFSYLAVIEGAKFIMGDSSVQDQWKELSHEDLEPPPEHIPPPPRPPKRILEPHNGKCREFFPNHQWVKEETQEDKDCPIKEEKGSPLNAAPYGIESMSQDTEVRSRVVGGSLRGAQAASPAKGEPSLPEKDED

hTCPTP = target: T3, hTCPTP (Homo sapiens, UniProt P17706); experiment: Selectivity assay against TCPTP; assay type: biochemical
T3 construct: His tag (vector pET-28a(+)-TEV, with TEV site); made in house; host or cells: E. coli BL21 (DE3)
T3 sequence (P17706 1-415): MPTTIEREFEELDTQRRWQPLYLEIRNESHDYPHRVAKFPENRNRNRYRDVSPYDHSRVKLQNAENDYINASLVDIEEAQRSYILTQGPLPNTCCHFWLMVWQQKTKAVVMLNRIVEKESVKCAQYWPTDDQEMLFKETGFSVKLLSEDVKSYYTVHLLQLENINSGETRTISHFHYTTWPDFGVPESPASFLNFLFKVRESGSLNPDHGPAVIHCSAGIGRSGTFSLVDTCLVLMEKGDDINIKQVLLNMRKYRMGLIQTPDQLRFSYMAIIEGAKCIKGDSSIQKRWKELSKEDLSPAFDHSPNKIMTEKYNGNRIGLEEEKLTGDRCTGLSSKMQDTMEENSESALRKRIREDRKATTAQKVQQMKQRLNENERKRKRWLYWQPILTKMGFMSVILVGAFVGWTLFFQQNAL
Protocol: A spectrocolorimetric method previously described[3] was employed to test the inhibitory effect of the new compounds against PTP1B. […] Enzyme solutions containing pNPP and inhibitors were incubated at 37 °C for 15 min. […] The percentage of inhibition was plotted as a function of the inhibitor concentrations.
Similarly to the IC50, the assays to determine the selectivity were carried out in the same experimental conditions using hPTP1B1–400 and hTCPTP.
The expression vector pET-28a(+)-TEV was obtained from Invitrogen (Waltham, MA, USA). E. coli strain DH5α and BL21 (DE3) were purchased from Invitrogen (Waltham, MA, USA). The gene PTPN2 was subcloned into the expression vector pET-28a (+)-TEV, using the NDEI and BAMHI cloning sites. The construction pET-28A(+)-TEV–PTPN2 was transformed into E. coli strain BL21 (DE3). Transformed E. coli cells were grown in LB media containing kanamycin ([…]) at 37 °C for 6 h with continuous agitation (250 rpm). Once the cultures reached an A600 of 0.6 (about 6 h), protein expression was induced with 1 mM IPTG at 37 °C, 250 rpm for 8 h. After centrifuge (4500 rpm, 15 min, 4 °C), the grown and IPTG-induced cultures and bacterial pellet were resuspended in Tris buffer (pH 6.8) and lysed by sonication (10 cycles, intervals of 30 s) in an ice–water bath with an ultrasonic processor (Cole-Parmer, Vernon Hills, IL, USA). […] The column was equilibrated with three column volumes of 50 mM Tris, pH 6.8. His-tagged protein was eluted with Tris 50 mM and 300 mM imidazole with one column volume. […] Fractions containing hTCPTP were dialyzed in 50 mM Tris, pH 6.8. The purity of the protein was followed by SDS-polyacrylamide gel electrophoresis (SDS-PAGE) using a 12% resolving gel.

hPTP1B1–400 [2] = target: T2, hPTP1B1–400; experiment: Enzyme kinetics (Lineweaver–Burk, varying pNPP); details: for inhibition mechanism: hPTP1B1–400, best fit of inhibition models; for Km / Vmax: hPTP1B1–400, pNPP 0.1–0.5 mM
[3] = IC50 ± SD hPTP1B1–400, hPTP1B 66 nM, pNPP 0.5 mM, 37 °C, 15 min

| IC50 (hPTP1B1–400 [1]; [3]) | Compound | Ki (hPTP1B1–400 [2]) | inhibition mechanism (hPTP1B1–400 [2]) | Km (hPTP1B1–400 [2]) | Vmax (hPTP1B1–400 [2]) | further results |
| --- | --- | --- | --- | --- | --- | --- |
| > 100 µM | C[C@H](CCC(=O)O)C1CCC2C3CC[C@@H]4C[C@](O)(CNCc5ccc(F)cc5)CC[C@]4(C)C3CC[C@@]21C (stereo partly drawn) [compound 6h, 1-((3S,5R,10S,13R)-17-((R)-4-carboxybutan-2-yl)-3-hydroxy-10,13-dimethylhexadecahydro-1H-cyclopenta[a]phenanthren-3-yl)-N-(4-fluorobenzyl)methanaminium Chloride] |  |  |  |  |  |
| 33.1 ± 2.7 µM | C[C@H](CCC(=O)O)C1CCC2C3CC[C@@H]4C[C@](O)(CNCc5ccccc5)CC[C@]4(C)C3CC[C@@]21C (stereo partly drawn) [compound 6a, N-Benzyl-1-((3S,5R,10S,13R)-17-((R)-4-carboxybutan-2-yl)-3-hydroxy-10,13-dimethylhexadecahydro-1H-cyclopenta[a]phenanthren-3-yl)methanaminium Chloride] |  |  |  |  |  |
| > 100 µM | C[C@H](CCC(=O)O)C1CCC2C3CC[C@@H]4C[C@](O)(CNCc5cccc(F)c5)CC[C@]4(C)C3CC[C@@]21C (stereo partly drawn) [compound 6g, 1-((3S,5R,10S,13R)-17-((R)-4-carboxybutan-2-yl)-3-hydroxy-10,13-dimethylhexadecahydro-1H-cyclopenta[a]phenanthren-3-yl)-N-(3-fluorobenzyl)methanaminium Chloride] |  |  |  |  |  |
| 16.3 ± 0.5 µM | Cc1cccc(CNC[C@]2(O)CC[C@]3(C)C4CC[C@@]5(C)C(CCC5[C@H](C)CCC(=O)O)C4CC[C@@H]3C2)c1 (stereo partly drawn) [compound 6e, 1-((3S,5R,10S,13R)-17-((R)-4-carboxybutan-2-yl)-3-hydroxy-10,13-dimethylhexadecahydro-1H-cyclopenta[a]phenanthren-3-yl)-N-(3-methylbenzyl)methanaminium Chloride] |  |  |  |  | IC50 (hPTP1B1–285): 53.8 ± 2.7 µM |
| 26.9 ± 3.5 µM | C[C@H](CCC(=O)O)C1CCC2C3CC[C@@H]4C[C@](O)(CNCc5ccc(O)cc5)CC[C@]4(C)C3CC[C@@]21C (stereo partly drawn) [compound 6b, 1-((3S,5R,10S,13R)-17-((R)-4-carboxybutan-2-yl)-3-hydroxy-10,13-dimethylhexadecahydro-1H-cyclopenta[a]phenanthren-3-yl)-N-(4-hydroxybenzyl)methanaminium Chloride] |  |  |  |  |  |
| 34.3 ± 0.5 µM | Cc1ccc(CNC[C@]2(O)CC[C@]3(C)C4CC[C@@]5(C)C(CCC5[C@H](C)CCC(=O)O)C4CC[C@@H]3C2)cc1 (stereo partly drawn) [compound 6f, 1-((3S,5R,10S,13R)-17-((R)-4-carboxybutan-2-yl)-3-hydroxy-10,13-dimethylhexadecahydro-1H-cyclopenta[a]phenanthren-3-yl)-N-(4-methylbenzyl)methanaminium Chloride] |  |  |  |  | IC50 (hPTP1B1–285): 46 ± 1.7 µM |
| > 100 µM | C[C@H](CCC(=O)O)C1CCC2C3CC[C@@H]4C[C@](O)(CNCc5ccc(Cl)cc5)CC[C@]4(C)C3CC[C@@]21C (stereo partly drawn) [compound 6j, 1-((3S,5R,10S,13R)-17-((R)-4-carboxybutan-2-yl)-3-hydroxy-10,13-dimethylhexadecahydro-1H-cyclopenta[a]phenanthren-3-yl)-N-(4-chlorobenzyl)methanaminium Chloride] |  |  |  |  |  |

Further lines, the molecule ahead of its results:

| Compound | IC50 (hPTP1B1–400 [1]; [3]) | Ki (hPTP1B1–400 [2]) | inhibition mechanism (hPTP1B1–400 [2]) | Km (hPTP1B1–400 [2]) | Vmax (hPTP1B1–400 [2]) | further results |
| --- | --- | --- | --- | --- | --- | --- |
| C[C@H](CCC(=O)O)C1CCC2C3CC[C@@H]4C[C@](O)(CNCc5ccc(C(F)(F)F)cc5)CC[C@]4(C)C3CC[C@@]21C.Cl (stereo partly drawn) [compound 6n, 1-((3S,5R,10S,13R)-17-((R)-4-carboxybutan-2-yl)-3-hydroxy-10,13-dimethylhexadecahydro-1H-cyclopenta[a]phenanthren-3-yl)-N-(4-(trifluoromethyl)benzyl)methanaminium Chloride] | 5.3 ± 0.2 µM | 3.4 ± 0.3 µM | uncompetitive inhibition | 520 ± 70 µM | 0.73 ± 0.06 mM/min | IC50 (hPTP1B1–285): 16.3 ± 0.9 µM; IC50 (hPTP1B1–400 [1]; PTP1B IC50 ± SD, selectivity assay, hPTP1B1–400): 5.3 ± 0.2 µM; fold more potent than LA (hPTP1B1–400 [1]; hPTP1B1–400 IC50 compared with LA): 3 fold; fold higher potency for hPTP1B1–400 over hPTP1B1–285 (hPTP1B1–400 [1]; ratio of IC50 values, long vs short form): ~3 fold; IC50 (hTCPTP; concentrations tested 1 to 400 μM, read-out: TCPTP IC50 ± SD): > 400 µM; fold selectivity for PTP1B over TCPTP (hTCPTP; hPTP1B1–400 vs hTCPTP): around 75 fold; selectivity (PTP1B over TCPTP) (hTCPTP; hPTP1B1–400 vs hTCPTP): Yes |
| COc1ccc(CNC[C@]2(O)CC[C@]3(C)C4CC[C@@]5(C)C(CCC5[C@H](C)CCC(=O)O)C4CC[C@@H]3C2)cc1.Cl (stereo partly drawn) [compound 6d, 1-((3S,5R,10S,13R)-17-((R)-4-carboxybutan-2-yl)-3-hydroxy-10,13-dimethylhexadecahydro-1H-cyclopenta[a]phenanthren-3-yl)-N-(4-methoxybenzyl)methanaminium Chloride] | 26.6 ± 0.9 µM | 19.7 ± 2.6 µM | Uncompetitive | 780 ± 90 µM | 1.10 ± 0.09 mM/min |  |
| C[C@H](CCC(=O)O)C1CCC2C3CC[C@@H]4C[C@](O)(CNCc5ccc(C(=O)O)cc5)CC[C@]4(C)C3CC[C@@]21C.Cl (stereo partly drawn) [compound 6l, N-(4-carboxybenzyl)-1-((3S,5R,10S,13R)-17-((R)-4-carboxybutan-2-yl)-3-hydroxy-10,13-dimethylhexadecahydro-1H-cyclopenta[a]phenanthren-3-yl)methanaminium Chloride] | 12.6 ± 0.7 µM | 10.7 ± 1.6 µM | Uncompetitive | 950 ± 150 µM | 1.41 ± 0.17 mM/min |  |
| C[C@H](CCC(=O)O)C1CCC2C3CC[C@@H]4C[C@](O)(CNCc5cccc(Cl)c5)CC[C@]4(C)C3CC[C@@]21C (stereo partly drawn) [compound 6i, 1-((3S,5R,10S,13R)-17-((R)-4-carboxybutan-2-yl)-3-hydroxy-10,13-dimethylhexadecahydro-1H-cyclopenta[a]phenanthren-3-yl)-N-(3-chlorobenzyl)methanaminium Chloride] | > 100 µM |  |  |  |  |  |
| C[C@H](CCC(=O)O)C1CCC2C3CC[C@@H]4C[C@](O)(CNCc5cccc(C(=O)O)c5)CC[C@]4(C)C3CC[C@@]21C.Cl (stereo partly drawn) [compound 6k, N-(3-carboxybenzyl)-1-((3S,5R,10S,13R)-17-((R)-4-carboxybutan-2-yl)-3-hydroxy-10,13-dimethylhexadecahydro-1H-cyclopenta[a]phenanthren-3-Yl)methanaminium Chloride] | 32.3 ± 1.2 µM | 11 ± 1 µM | Uncompetitive | 480 ± 60 µM | 0.80 ± 0.06 mM/min |  |
| COc1cccc(CNC[C@]2(O)CC[C@]3(C)C4CC[C@@]5(C)C(CCC5[C@H](C)CCC(=O)O)C4CC[C@@H]3C2)c1.Cl (stereo partly drawn) [compound 6c, 1-((3S,5R,10S,13R)-17-((R)-4-carboxybutan-2-yl)-3-hydroxy-10,13-dimethylhexadecahydro-1H-cyclopenta[a]phenanthren-3-yl)-N-(3-methoxybenzyl)methanaminium Chloride] | 10.5 ± 0.2 µM | 4 ± 0.2 µM | Uncompetitive | 380 ± 20 µM | 0.64 ± 0.02 mM/min |  |
